Several values for one entry are separate records, joined by “and”; a condition that tells them apart may be missing. Identical values can stand only once.
What was measured:
[1] = system: micronucleated cells in blood; test: Single parameter flow cytometric micronucleus analysis, cyclophosphamide, effect of analysis window size; format: in vivo, mouse
Procedure: In order to show this single parameter embodiment of this invention, the instrument was aligned with the malaria parasite, P. berghei, data was acquired, and analysis windows were defined relative to the malaria peak. […] A prominent peak, characteristic of cells single parasites, is evident. The primary analysis window was used to bracket the main peak and extends to the third log has mark. […] Blood samples (t=0 and t=96 hr) from a mouse that was dosed with cyclophosphamide (at t=0 and t=48 hrs) were stained with […] and the events were also acquired in the single parameter mode. FIGS. 9A and 9B show the blue fluorescence histograms that were obtained for the t=0 and the t=96 hr samples, respectively. The analysis windows shown in FIG. 9 are those that were initially set up with the malaria infected blood sample shown in FIG. 8. The number of events present in the primary analysis windows are shown. […]
Practioners in the art are presently unaware of the need for internal quality control on the flow cytometer signals during the analysis of each sample. […] As indicated earlier, neither RBC, PCEs, MN-cells nor the nucleated cell populations provide proper signals for evaluating instrument alignment since they are either nor present in sufficient quantities, the populations are too dispersed, or cell staining variations would be introduced. […]

[2] = system: micronucleated cells in blood; test: Flow cytometric micronucleus assay, dual parameter data, cyclophosphamide, per 10^6 cells; format: in vivo, mouse; details: for Mns (T = 96 hr): Hoechst 33258; for Δ (T96 - T0): per mouse difference and mean of differences
Source text: The fixation procedure can affect the permeability of a cell, cell morphology and the amount of undesirable autofluorescence that is associated with a cell preparation. Fixing procedures can cause changes in cell structure (that are reflected in the light scatter patterns) as well as changes in the distribution of the dye molecules within the cells (resulting in altered fluorescence emission patterns). Practioners of the art are unaware that fixing the cells at ultralow temperatures circumvents these fixation problems and provides cells that are suitable for subsequent staining and FCM analysis. Initially, the cells are centrifuged in order to separate them from serum components which could aggregate when added to cold fixative. To fix cells, a fresh blood sample (25 μl) containing an anticogulant is suspended in a solution containing 1% BSA and 10% dimethylsulfoxide (DMSO) in PBS (2 ml). The cells are centrifuged at 500×g for five minutes at room temperature. The supernatant is discarded and the pellet is resuspended in the small amount of residual supernatant that remains. This cell suspension is cooled to 0° C., the cells are diluted further with cold (-70° C.) absolute methanol (2 ml) and it is incubated at -70° C. for five minutes. The cell suspension is then immediately diluted with 1% BSA in PBS (10 ml) and is centrifuged at 500×g for 5 minutes. The low temperature treatment yields fixed cells with good morphology as viewed with either inverted phase contrast microscopy or fluorescent microscopy. Autofluorescence of these cells is very low, in contrast to glutaraldehyde or paraformaldehyde fixation procedures that are widely used in the art. Other volumes of blood and/or BSA in PBS are also compatible with this cell fixing process. The volume of methanol should be in the range of 0.5 to 20 ml. The temperature of the methanol should be in the range -30° C. to -90° C., and the fixation time in the range of 1 minute to 60 minutes for good results. When cells are fixed in alcohol at higher temperatures (e.g. in the range of +37° C. to - 20° C.), they tend to aggregate and quickly settle to the bottom of the centrifuge tube. […] Other ultra cold solvents can be used in place of methanol, such as acetone, methanol/acetone solutions, etc.. Two fixed cell samples can be prepared for each mouse, an initial (time=0) sample and a final time=96 hr sample. Cells fixed in this way can be stored at 0° C. for weeks with no significant deterioration and are ready for staining and MN analysis.
It is known to practioners in the art that a variety of fluorescent dyes can be used to stain the DNA and RNA of cells. Even so, the specific stain, combinations or staining conditions that are optimum for the FCM based micronucleus assay are unresolved. […] These dye can be used individually or together to stain different cell populations. By choosing proper concentrations of these two dyes in conjunction with 363 nm excitation wavelength, it is possible to obtain a blue fluorescence signal from the Hoechst 33258 labeled micronucleii. A red fluorescence signal can be obtained from propidium iodide labeled PCEs. Whereas neither the dye combination, the dye concentration, the dye excitation wavelengths nor the appropriate buffer systems are known to practitioners in the art for an FCM based micronucleus assay, the following staining protocal is submitted as an embodiment of the present invention. A 10× stock solution of the dye should be prepared by dissolving 14.3 mg Hoechst 33258 in methanol (100 ml). A working solution is then prepared by adding 0.25 ml of the 10× stock solution to 9.75 ml of complete Sorensen's buffer. This working solution is then passed through an 0.2 micron acro-filter disk (Gelman Sciences) to remove any debris. The filtered working solution is further diluted by adding 25 μl to 967.5 μl of saline buffer (9 g NaCl and 0.445 g sodium bicarbonate per liter). […]

[3] = CP 100 μg/g body wt IP at 0 and 48 hours
[4] = CP 100 μg/g body wt IP at 0 and 48 hours, listed as CP

O=P1(N(CCCl)CCCl)NCCCO1 (centres unmarked) [cyclophosphamide]
clastogen stimulated increase in MNs ([1]; cyclophosphamide at t=0 and t=48 hrs, primary or expanded window): clastogen stimulated increase in MNs is clearly evident | Sum96 (t = 96 hr) ([1]; cyclophosphamide, primary window plus sequentially added secondary windows 2-8): 1480 MN events and 1563 MN events and 1644 MN events and 1713 MN events and 1778 MN events and 1839 MN events and 1915 MN events | Mns (T = 96 hr) [2, 3]: 2954 MNs per 10^6 cells | Mns (T = 96 hr) [2, 4]: 2591 MNs per 10^6 cells and 2453 MNs per 10^6 cells and 2626 MNs per 10^6 cells and 2708 MNs per 10^6 cells and 2594 ± 106 MNs per 10^6 cells | Δ (T96 - T0) [2, 3]: 1124 MNs per 10^6 cells | Δ (T96 - T0) [2, 4]: 1099 MNs per 10^6 cells and 1039 MNs per 10^6 cells and 1074 MNs per 10^6 cells and 1282 MNs per 10^6 cells and 1124 ± 108 MNs per 10^6 cells | Difference Mn96 - Mn0 (difference of the means) ([2]; CP 100 μg/g body wt IP at 0 and 48 hours, t=96 hr mean minus t=0 mean): 1123 MNs per 10^6 cells | MN formation ([2]; CP 100 μg/g body wt at 0 and 48 hours): large increase in MN formation | Increase in MNs (MeanCP - MeanSaline), from mean Δ (T96 - T0) ([2]; first method: difference of mean individual Δ values, CP minus saline): 1047 MNs per 10^6 cells | Increase in MNs (MeanCP - MeanSaline), from Mn96 - Mn0 of means ([2]; second method: difference of means, CP minus saline): 1047 MNs per 10^6 cells | Increase in MNs, means of the t=96 hr samples (dosed minus controls) ([2]; third method: t=0 values ignored, 1,000,000 cells): 992 MN-cells
